Experimental data reported in BindingDB's records for PubMed 33356248 (Scientus Pharma, 2021).

Biological target: Cannabinoid receptor 2 (Homo sapiens, UniProt P34972)
Sequence (P34972 whole entry): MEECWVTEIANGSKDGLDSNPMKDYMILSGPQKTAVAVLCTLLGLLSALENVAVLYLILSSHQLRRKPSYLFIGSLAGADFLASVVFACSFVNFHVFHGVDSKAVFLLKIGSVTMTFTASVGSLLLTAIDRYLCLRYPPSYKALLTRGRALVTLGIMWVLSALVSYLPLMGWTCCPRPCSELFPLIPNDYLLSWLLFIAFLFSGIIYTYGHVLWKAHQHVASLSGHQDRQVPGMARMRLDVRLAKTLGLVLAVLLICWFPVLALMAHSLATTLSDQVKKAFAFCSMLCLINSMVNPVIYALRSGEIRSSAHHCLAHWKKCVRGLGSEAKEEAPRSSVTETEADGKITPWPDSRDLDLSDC

Compound: CCCCCc1cc(O)c2c(c1)OC(C)(C)c1ccc(C)cc1-2 [6,6,9-Trimethyl-3-pentyl-6H-benzo[c]chromen-1-ol(Cannabinol)]
- EC50: 60 nM
